As usually defined, the IC50 is the concentration at which inhibition is half-maximal.

Test [1] deals with Aβ production in Chinese hamster ovary cells that over-express human APP695 with the London and Swedish mutations. The test is described as follows: Cellular Aβ IC50 determination (Aβ40 sandwich ELISA). As to conditions: Cricetulus griseus. The class given is cell-based. The gist of the method:
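Aβ40 in media quantified by sandwich ELISA, normalized to control incubations and fitted with a 4-parameter IC50 model. Compounds dosed to a final concentration near 4 μM (0.4% DMSO) on CHO cells expressing human APP695 (London and Swedish mutants) seeded at 10% confluency.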
Background: ELISA stands for enzyme-linked immunosorbent assay.

In a further test the target is memapsin 2 (Homo sapiens, UniProt P56817). The test is described as follows: Inhibition of memapsin 2 beta-secretase activity (fluorogenic substrate FS-2). The class given is biochemical. As to conditions: memapsin 2, pH 4, 37° C., read-out: M2Ki. The gist of the method: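 Kinetic fluorogenic assay: hydrolysis of the MCA/DNP-labelled APP Swedish-variant peptide FS-2 monitored as fluorescence rise at 37° C, pH 4, after 20 min enzyme–compound preincubation. Relative rates fitted with a tight-binding inhibitor model.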

The mark [2] stands for this setting: cellular Aβ production, read-out: IC50.

Like-named read-outs stand apart in the source and are kept apart here.

Sequence of memapsin 2 (P56817 46-501): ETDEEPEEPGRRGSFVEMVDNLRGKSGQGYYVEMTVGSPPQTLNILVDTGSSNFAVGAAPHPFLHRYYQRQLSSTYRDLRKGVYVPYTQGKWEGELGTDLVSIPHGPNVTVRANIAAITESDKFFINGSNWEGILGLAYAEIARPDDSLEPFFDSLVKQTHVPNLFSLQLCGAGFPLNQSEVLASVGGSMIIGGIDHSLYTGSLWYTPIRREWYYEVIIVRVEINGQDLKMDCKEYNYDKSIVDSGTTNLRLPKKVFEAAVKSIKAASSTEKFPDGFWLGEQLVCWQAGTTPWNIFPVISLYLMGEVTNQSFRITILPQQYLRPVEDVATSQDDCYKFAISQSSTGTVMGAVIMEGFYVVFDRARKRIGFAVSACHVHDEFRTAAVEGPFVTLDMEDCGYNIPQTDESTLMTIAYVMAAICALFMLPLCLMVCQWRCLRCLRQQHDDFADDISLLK

Take `Cc1csc(CN(C)C(=O)c2cc(C(=O)N[C@@H](Cc3ccccc3)[C@H](O)CNCc3cncc(C(C)C)c3)cc(C(F)F)c2)n1` [Compound 204, 5-(difluoromethyl)-N1-((2S,3R)-3-hydroxy-4-((5-isopropylpyridin-3-yl)methylamino)-1-phenylbutan-2-yl)-N3-methyl-N3-((4-methylthiazol-2-yl)methyl)isophthalamide]: the IC50 in test [1] (setting [2]) was under 1000 nM. Also, the Ki at memapsin 2 (20 minutes pre-incubation) is under 300 nM.
For `Cc1csc(CN(C)C(=O)c2cc(C(=O)N[C@@H](Cc3ccccc3)[C@H](O)CNCc3cncc(C(C)C)c3)cc(-c3ccncc3)c2)n1` [Compound 205, N1-((2S,3R)-3-hydroxy-4-((5-isopropylpyridin-3-yl)methylamino)-1-phenylbutan-2-yl)-N3-methyl-N3-((4-methylthiazol-2-yl)methyl)-5-(pyridin-4-yl)isophthalamide], in that order: under 1000 nM and under 300 nM.
Regarding `Cc1csc(CN(C)C(=O)c2cccc(C(=O)N[C@@H](Cc3ccccc3)[C@H](O)CN[C@H](C)c3cncc(C(C)C)c3)c2)n1` [Compound 206, N1-((2S,3R)-3-hydroxy-4-((R)-1-(5-isopropylpyridin-3-yl)ethylamino)-1-phenylbutan-2-yl)-N3-methyl-N3-((4-methylthiazol-2-yl)methyl)isophthalamide], the concentration for half-maximal inhibition (IC50) in test [1] (setting [2]) was under 1000 nM. The Ki on memapsin 2 (20 minutes pre-incubation) is under 300 nM.
In the same order, the values of `COc1cc(CNC[C@@H](O)[C@H](Cc2ccccc2)NC(=O)c2cccc(C(=O)N(C)Cc3nc(C)cs3)c2)nc(N)n1` [Compound 207, N1-((2S,3R)-4-((2-amino-6-methoxypyrimidin-4-yl)methylamino)-3-hydroxy-1-phenylbutan-2-yl)-N3-methyl-N3-((4-methylthiazol-2-yl)methyl)isophthalamide] are over 5000 nM and 301 to 500 nM.
Molecule `Cc1csc(CN(C)C(=O)c2cc(C(=O)N[C@@H](Cc3ccccc3)[C@H](O)CNCc3cc(OC(=O)N(C)C)cc(C(C)C)c3)cc(N(C)C)c2)n1` [Compound 209, 3-(((2R,3S)-3-(3-(dimethylamino)-5-(methyl((4-methylthiazol-2-yl)methyl)carbamoyl)benzamido)-2-hydroxy-4-phenylbutylamino)methyl)-5-isopropylphenyl dimethylcarbamate] returned a half-inhibitory concentration (IC50) in test [1] of under 1000 nM. On memapsin 2 (20 minutes pre-incubation), the Ki was under 300 nM.
As for `COc1cccc(CNC[C@@H](O)[C@H](Cc2ccccc2)NC(=O)c2cc(C(=O)N(C)Cc3nc(C)cs3)cc(-c3ccccc3OC)c2)c1` [Compound 210, N3-((2S,3R)-3-hydroxy-4-(3-methoxybenzylamino)-1-phenylbutan-2-yl)-2′-methoxy-N5-methyl-N5-((4-methylthiazol-2-yl)methyl)biphenyl-3,5-dicarboxamide], in test [1] (setting [2]), the concentration for half-maximal inhibition (IC50) was under 1000 nM. Further, the Ki at memapsin 2 (fluorogenic substrate FS-2) is under 300 nM.
In the same order, the values of `CC(C)c1cncc(CNC[C@@H](O)[C@H](Cc2ccccc2)NC(=O)c2cc(C(=O)N[C@H](C)c3ccccc3)cc(-c3ncco3)c2)c1` [Compound 211, N1-((2S,3R)-3-hydroxy-4-((5-isopropylpyridin-3-yl)methylamino)-1-phenylbutan-2-yl)-5-(oxazol-2-yl)-N3-((R)-1-phenylethyl)isophthalamide] are under 1000 nM and under 300 nM.
For `COc1cc(CNC[C@@H](O)[C@H](Cc2ccccc2)NC(=O)c2cccc(C(=O)N(C)Cc3nc(C)cs3)c2)nc(N(C)C)n1` [Compound 212, N1-((2S,3R)-4-((2-(dimethylamino)-6-methoxypyrimidin-4-yl)methylamino)-3-hydroxy-1-phenylbutan-2-yl)-N3-methyl-N3-((4-methylthiazol-2-yl)methyl)isophthalamide], in that order: under 1000 nM and under 300 nM.
In the same order, the values of `COc1cccc(CNC[C@@H](O)[C@H](Cc2ccccc2)NC(=O)c2cc(C(=O)N[C@H](C)c3ccccc3)cc(-c3ncco3)c2)c1` [Compound 213, N1-((2S,3R)-3-hydroxy-4-(3-methoxybenzylamino)-1-phenylbutan-2-yl)-5-(oxazol-2-yl)-N3-((R)-1-phenylethyl)isophthalamide] are under 1000 nM and 301 to 500 nM.
`Cc1csc(CN(C)C(=O)c2cc(C(=O)N[C@@H](Cc3ccccc3)[C@H](O)CNCc3cncc(C(C)C)c3)cc(-c3cnccn3)c2)n1` [Compound 214, N1-((2S,3R)-3-hydroxy-4-((5-isopropylpyridin-3-yl)methylamino)-1-phenylbutan-2-yl)-N3-methyl-N3-((4-methylthiazol-2-yl)methyl)-5-(pyrazin-2-yl)isophthalamide]: the 50% inhibitory concentration (IC50) in test [1] (setting [2]) was under 1000 nM. Besides, the Ki on memapsin 2 (fluorogenic substrate FS-2) was under 300 nM.
Turning to `Cc1csc(CN(C)C(=O)c2cccc(C(=O)N[C@@H](Cc3ccccc3)[C@H](O)CNCc3cc(O)cc(C(C)(C)C)c3)c2)n1` [Compound 215, N1-((2S,3R)-4-(3-tert-butyl-5-hydroxybenzylamino)-3-hydroxy-1-phenylbutan-2-yl)-N3-methyl-N3-((4-methylthiazol-2-yl)methyl)isophthalamide], the IC50 in test [1] (setting [2]) was under 1000 nM. On memapsin 2 (fluorogenic substrate FS-2), the Ki is under 300 nM.
For the molecule `Cc1csc(CN(C)C(=O)c2cccc(C(=O)N[C@@H](Cc3ccccc3)[C@H](O)CNCc3cncc(Cl)c3)c2)n1` [Compound 216, N1-((2S,3R)-4-((5-chloropyridin-3-yl)methylamino)-3-hydroxy-1-phenylbutan-2-yl)-N3-methyl-N3-((4-methylthiazol-2-yl)methyl)isophthalamide], the IC50 in test [1] (setting [2]) is under 1000 nM. Besides, the Ki at memapsin 2 (fluorogenic substrate FS-2) is under 300 nM.
`Cc1csc(CN(C)C(=O)c2cccc(C(=O)N[C@@H](Cc3ccccc3)[C@H](O)CNCc3cncc(C(C)(F)F)c3)c2)n1` [Compound 217, N1-((2S,3R)-4-((5-(1,1-difluoroethyl)pyridin-3-yl)methylamino)-3-hydroxy-1-phenylbutan-2-yl)-N3-methyl-N3-((4-methylthiazol-2-yl)methyl)isophthalamide]: in test [1] (setting [2]), the half-maximal inhibitory concentration (IC50) was under 1000 nM. Moreover, the Ki at memapsin 2 (fluorogenic substrate FS-2) was under 300 nM.
Regarding `COc1cc(CNC[C@@H](O)[C@H](Cc2ccccc2)NC(=O)c2cccc(C(=O)N(C)Cc3nc(C)cs3)c2)cc([N+](=O)[O-])c1` [Compound 221, N1-((2S,3R)-3-hydroxy-4-(3-methoxy-5-nitrobenzylamino)-1-phenylbutan-2-yl)-N3-methyl-N3-((4-methylthiazol-2-yl)methyl)isophthalamide], the IC50 in test [1] (setting [2]) is under 1000 nM. On memapsin 2 (fluorogenic substrate FS-2), the Ki is under 300 nM.
Turning to `Cc1csc(CN(C)C(=O)c2cc(C(=O)N[C@@H](Cc3ccccc3)[C@H](O)CNCc3cccc(C(F)(F)F)c3)cc(-c3cnccn3)c2)n1` [Compound 222, N1-((2S,3R)-3-hydroxy-1-phenyl-4-(3-(trifluoromethyl)benzylamino)butan-2-yl)-N3-methyl-N3-((4-methylthiazol-2-yl)methyl)-5-(pyrazin-2-yl)isophthalamide], in test [1] (setting [2]), the half-inhibitory concentration (IC50) is under 1000 nM. Moreover, the Ki at memapsin 2 (fluorogenic substrate FS-2) was under 300 nM.
For `Cc1csc(CN(C)C(=O)c2cc(C(=O)N[C@@H](Cc3ccccc3)[C@H](O)CNCc3cncc(C(C)C)c3)cc(C(C)O)c2)n1` (stereo partly drawn) [Compound 223, N1-((2S,3R)-3-hydroxy-4-((5-isopropylpyridin-3-yl)methylamino)-1-phenylbutan-2-yl)-5-(1-hydroxyethyl)-N3-methyl-N3-((4-methylthiazol-2-yl)methyl)isophthalamide], in that order: under 1000 nM and under 300 nM.

Source of the values: US20100286145A1, “ISOPHTHALAMIDE DERIVATIVES INHIBITING BETA-SECRETASE ACTIVITY” (CoMentis, Inc., priority 2007, published 2010).
